Active and inactive are the calls of the source. The rule behind the calls is not given here.
Tests used:
HeLa = experiment: Antitumor activity against human HeLa cells assessed as inhibition of cell growth by MTT assay; format: functional, cell-based
SiHa = experiment: Antitumor activity against human SiHa cells assessed as inhibition of cell growth by MTT assay; format: functional, cell-based
BeWo = experiment: Antitumor activity against human Bewo cells assessed as inhibition of cell growth by MTT assay; format: functional, cell-based
[1] = Antitumor activity against human HL60 cells assessed as inhibition of cell growth by MTT assay; format: functional, cell-based; details: HL-60
[2] = Antitumor activity against human SGC7901 cells assessed as inhibition of cell growth by MTT assay; format: functional, cell-based; details: SGC-7901
HepG2 = experiment: Antitumor activity against human HepG2 cells assessed as inhibition of cell growth by MTT assay; format: functional, cell-based
[3] = Antitumor activity against human Bel7404 cells assessed as inhibition of cell growth by MTT assay; format: functional, cell-based; details: BEL-7404
A549 = experiment: Antitumor activity against human A549 cells assessed as inhibition of cell growth by MTT assay; format: functional, cell-based
[4] = Antitumor activity against human […] cells assessed as inhibition of cell growth by MTT assay; format: functional, cell-based
MCF7 = experiment: Antitumor activity against human MCF7 cells assessed as inhibition of cell growth by MTT assay; format: functional, cell-based
HL-60 [5] = experiment: Induction of cell morphological changes in human HL60 cells at 2.5 to 10 ug/mL; format: functional, cell-based
HL-60 [6] = experiment: Induction of apoptosis in human HL60 cells at 0.5 to 2 ug/mL by flow cytometry; format: functional, cell-based
CCRF S-180 = experiment: Antitumor activity against mouse S180 cells implanted in mouse assessed as inhibition of tumor growth at 40 mg/kg; format: functional

Row | IC50 (HeLa) | IC50 (HepG2) | IC50 (A549) | IC50 (MCF7) | SMILES | IC50 (SiHa) | IC50 (BeWo) | IC50 [1] | IC50 [2] | IC50 [3] | IC50 [4] | Activity (HL-60 [5]) | Activity (HL-60 [6]) | inhibition in vivo at 40 mg/kg (CCRF S-180)
1 | 10.2 µM | 30.1 µM |  |  | O=C(/C=C/c1ccc(O)c(O)c1)NC12CC3CC(CC(C3)C1)C2 | 41.3 µM | 1.09 µM | 8.18 µM | 29.8 µM |  |  |  |  | 
2 | 91.3 µM |  |  |  | COc1c(O)ccc(/C=C/C(=O)NC23CC4CC(CC(C4)C2)C3)c1[N+](=O)[O-] | 38.9 µM | 26.7 µM | 73.2 µM |  |  |  |  |  | 
3 | 23.3 µM | 64 µM |  |  | CCOC(=O)/C=C/c1ccc(O)c(O)c1 [ETHYL CAFFEATE] | 34.1 µM | 6.2 µM | 8.94 µM | > 100 µM |  |  |  |  | 
4 | 38.7 µM |  |  |  | CC1(C)C2CCC1(C)C(OC(=O)/C=C/c1cc(O)c(O)c(Cl)c1)C2 (stereo unspecified) | 33.8 µM | 51.9 µM | 18.6 µM | 69.5 µM |  |  |  |  | 
5 | 30.1 µM | 91.6 µM |  |  | CC(C)OC(=O)/C=C/c1ccc(O)c(O)c1 | 48.2 µM | 5.9 µM | 11.8 µM | 97.7 µM |  |  |  |  | 
6 | 33.2 µM |  |  |  | O=C(/C=C/c1cc(O)c(O)c(Br)c1)NC12CC3CC(CC(C3)C1)C2 | > 100 µM | 60.9 µM | > 100 µM |  |  |  |  |  | 
7 | 59.9 µM |  |  |  | COc1cc(/C=C/C(=O)OC23CC4CC(CC(C4)C2)C3)ccc1O | > 100 µM | 70 µM | 92.4 µM |  |  |  |  |  | 
8 | 20.6 µM | 31.4 µM |  |  | CC1(C)C2CCC1(C)C(OC(=O)/C=C/c1ccc(O)c(O)c1)C2 (stereo unspecified) | 73.7 µM | 35.9 µM | 3.35 µM | 12 µM |  |  |  |  | 
9 | 16.7 µM | 69.7 µM |  |  | CC(C)(C)OC(=O)/C=C/c1ccc(O)c(O)c1 | 42 µM | 3.47 µM | 7.92 µM | 80 µM |  |  |  |  | 
10 | 38 µM | 40.9 µM |  |  | O=C(/C=C/c1ccc(O)c(O)c1)OCCc1ccccc1 [CAFFEIC ACID PHENETHYL ESTER] | 66.9 µM | 2.96 µM | 16.6 µM | 14.3 µM |  |  |  |  | 
11 | > 100 µM | 4.95 µM |  |  | CCCCCCCCCCCCCCCCCCOC(=O)/C=C/c1ccc(O)c(O)c1 | > 100 µM | > 100 µM | 10.2 µM | 17.2 µM |  |  |  |  | 
12 | 34.9 µM | 54.3 µM |  |  | CCCCCCCCOC(=O)/C=C/c1ccc(O)c(O)c1 | 45.9 µM | 13.1 µM | 8.29 µM | 56 µM |  |  |  |  | 
13 | 31.6 µM | 48.4 µM |  |  | O=C(/C=C/c1ccc(O)c(O)c1)OCCCCc1ccccc1 | 88.7 µM | 5.8 µM | 11.2 µM | 40.1 µM |  |  |  |  | 
14 | > 100 µM |  |  |  | COc1cc(/C=C/C(=O)NC23CC4CC(CC(C4)C2)C3)cc(Br)c1O | 82.4 µM | 41.4 µM | 49.8 µM |  |  |  |  |  | 
15 | 23.6 µM | 38.1 µM |  |  | CC(C)(COC(=O)/C=C/c1ccc(O)c(O)c1)[N+](=O)[O-] | 30.5 µM | 7.26 µM | 9.32 µM | > 100 µM |  |  |  |  | 
16 | 10.9 µM |  |  |  | O=C(/C=C/c1ccc(O)c(O)c1[N+](=O)[O-])OCCc1ccccc1 | 17.2 µM | 4.38 µM | 18.2 µM |  |  |  |  |  | 
17 | > 100 µM | 30 µM |  |  | O=C(/C=C/c1ccc(O)c(O)c1)OC12CC3CC(CC(C3)C1)C2 | > 100 µM | > 100 µM | 8.15 µM | 29.7 µM |  |  |  |  | 
18 | 23.5 µM | 85.6 µM |  |  | O=C(/C=C/c1ccc(O)c(O)c1)OCc1ccccc1 [BENZYL CAFFEATE] | 74.3 µM | 28.2 µM | 8 µM | 70.5 µM |  |  |  |  | 
19 |  |  |  |  | O=C(/C=C/c1cc(O)c(O)c(Cl)c1)OCCc1ccccc1 |  |  | 7.01 µM | 8.18 µM |  |  |  |  | 
20 | 98.4 µM |  |  |  | COc1cc(/C=C/C(=O)NC23CC4CC(CC(C4)C2)C3)cc(Cl)c1O | 34.8 µM | 44.5 µM | 67.9 µM |  |  |  |  |  | 
21 | 38.2 µM | 24.1 µM |  |  | CCCCCCC(C)OC(=O)/C=C/c1ccc(O)c(O)c1 (stereo unspecified) | 49.9 µM | 0.41 µM | 5.1 µM | 17.4 µM |  |  |  |  | 

Row | IC50 (HeLa) | IC50 (HepG2) | IC50 (A549) | IC50 (MCF7) | SMILES | IC50 (SiHa) | IC50 (BeWo) | IC50 [1] | IC50 [2] | IC50 [3] | IC50 [4] | Activity (HL-60 [5]) | Activity (HL-60 [6]) | inhibition in vivo at 40 mg/kg (CCRF S-180)
22 | 21.5 µM | 44.7 µM |  |  | CCCCCCCOC(=O)/C=C/c1ccc(O)c(O)c1 | 35.8 µM | 2.77 µM | 4.46 µM | 34 µM |  |  |  |  | 
23 | 17.5 µM | 4.44 µM |  |  | O=C(/C=C/c1cc(O)c(O)c(Br)c1)OCCc1ccccc1 | 28.5 µM | 8.24 µM | 8.49 µM | 6.75 µM |  |  |  |  | 
24 | 66.8 µM |  |  |  | COc1cc(/C=C/C(=O)NC23CC4CC(CC(C4)C2)C3)cc([N+](=O)[O-])c1O | 59.5 µM | 68.2 µM | 18.7 µM |  |  |  |  |  | 
25 | 29.8 µM | 50.8 µM |  |  | O=C(/C=C/c1ccc(O)c(O)c1)Oc1ccccc1 | 52.3 µM | 30.7 µM | 10.8 µM | 90.3 µM |  |  |  |  | 
26 | 28.6 µM | > 100 µM |  |  | CCCOC(=O)/C=C/c1ccc(O)c(O)c1 | 44.2 µM | 5.18 µM | 11.8 µM | > 100 µM |  |  |  |  | 
27 | 23.9 µM | 45.5 µM |  |  | O=C(/C=C/c1ccc(O)c(O)c1)OC1CCCCC1 | 51.5 µM | 2.75 µM | 8.32 µM | 95.5 µM |  |  |  |  | 
28 | 67.2 µM | > 100 µM |  |  | C=CCOC(=O)/C=C/c1ccc(O)c(O)c1 | 30.7 µM | 8.64 µM | 11.5 µM | 89.2 µM |  |  |  |  | 
29 | 19.2 µM | > 100 µM |  |  | C#CCOC(=O)/C=C/c1ccc(O)c(O)c1 | 39.1 µM | 8.99 µM | 12.3 µM | > 100 µM |  |  |  |  | 
30 | 1.28 µM | 3.84 µM | 4.41 µM | 4.09 µM | O=C(/C=C/c1cc(O)c(O)c([N+](=O)[O-])c1)OC12CC3CC(CC(C3)C1)C2 | 6.74 µM | 5.63 µM | 4.07 µM | 4.6 µM | 21.4 µM | 8.22 µM | Active | Active | 36.7%
31 | > 100 µM |  |  |  | COc1cc(/C=C/C(=O)NC23CC4CC(CC(C4)C2)C3)ccc1O | 67.6 µM | > 100 µM | > 100 µM |  |  |  |  |  | 
32 | 8.04 µM | 14.8 µM |  |  | O=C(/C=C/c1ccc(O)c(O)c1)Oc1ccc2ccccc2c1 | 39.5 µM | 0.36 µM | 3.4 µM | 44.8 µM |  |  |  |  | 
33 | 50 µM |  |  |  | O=C(/C=C/c1cc(O)c(O)c(Cl)c1)NC12CC3CC(CC(C3)C1)C2 | 18.9 µM | 68.4 µM | 35.6 µM |  |  |  |  |  | 
34 | 0.33 µM |  |  |  | COc1cccc2c1C(=O)c1c(O)c3c(c(O)c1C2=O)C[C@@](O)(C(=O)CO)C[C@@H]3O[C@H]1C[C@H](N)[C@H](O)[C@H](C)O1 [DOXORUBICIN] | 2.04 µM | 1.07 µM | 0.42 µM |  |  |  |  |  | 
35 | 22.7 µM |  |  |  | CC1(C)C2CCC1(C)C(OC(=O)/C=C/c1cc(O)c(O)c(Br)c1)C2 (stereo unspecified) | 29 µM | 20 µM | 15.2 µM |  |  |  |  |  | 
36 | 40.8 µM | > 100 µM |  |  | CCCCOC(=O)/C=C/c1ccc(O)c(O)c1 [BUTYL CAFFEATE] | 41 µM | 5.42 µM | 7.54 µM | > 100 µM |  |  |  |  | 
37 | 13.9 µM |  |  |  | CC1(C)C2CCC1(C)C(OC(=O)/C=C/c1ccc(O)c(O)c1[N+](=O)[O-])C2 (stereo unspecified) | 51.8 µM | 9.31 µM | 52.9 µM |  |  |  |  |  | 
38 | 52.5 µM | 81.5 µM |  |  | COC(=O)/C=C/c1ccc(O)c(O)c1 [METHYLCAFFEATE] | 60.3 µM | 17.3 µM | 12.3 µM | > 100 µM |  |  |  |  | 
39 |  |  |  |  | O=P1(N(CCCl)CCCl)NCCCO1 (stereo unspecified) [CYCLOPHOSPHAMIDE ANHYDROUS] |  |  |  |  |  |  |  |  | 54.8%
40 |  | > 100 µM |  |  | O=C(/C=C/c1ccc(O)c(O)c1)O[C@H]1C[C@@](O)(C(=O)O)C[C@H](O)[C@@H]1O |  |  | > 100 µM | > 100 µM |  |  |  |  | 
41 | 13.8 µM | 95.8 µM |  |  | CCC(C)OC(=O)/C=C/c1ccc(O)c(O)c1 (stereo unspecified) | 33.8 µM | 3.18 µM | 12.5 µM | > 100 µM |  |  |  |  | 

— ChEMBL document CHEMBL3352306, “Synthesis and antitumor activity of feruloyl and caffeoyl derivatives” (Bioorg Med Chem Lett, 2014)
